# What was measured:
# Assay in all cases: Test B pre-/postemergence plant response
# Type in all cases: in vivo
# [1] = tested on: Italian ryegrass (Lolium multiflorum); details: for Ryegrass, Italian plant response rating (0 to 100 scale): 62 g ai/ha, 0 is no effect
# In short: (§1)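 Each species received compound formulated in non-phytotoxic solvent with surfactant, either at planting into a loam and sand blend or as a foliar spray once plants reached 2 to 18 cm in peat-based medium. Plants stayed in the greenhouse 13 to 15 days before visual evaluation against controls, scored 0 (no effect) to 100 (complete control).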
# [2] = tested on: Surinam grass (Brachiaria decumbens); details: for Surinam Grass plant response rating (0 to 100 scale): 62 g ai/ha, 0 is no effect
# In short: as §1
# [3] = tested on: large crabgrass (Digitaria sanguinalis); details: for Crabgrass, Large plant response rating (0 to 100 scale): 62 g ai/ha, 0 is no effect
# In short: as §1
# corn (Zea mays) = details: for Corn plant response rating (0 to 100 scale): 62 g ai/ha, 0 is no effect
# In short: as §1
# [4] = tested on: lambsquarters (Chenopodium album); details: for Lambsquarters plant response rating (0 to 100 scale): 62 g ai/ha, 0 is no effect
# In short: as §1
# [5] = tested on: goosegrass (Eleusine indica); details: for Goosegrass plant response rating (0 to 100 scale): 62 g ai/ha, 0 is no effect
# In short: as §1
# [6] = tested on: pigweed (Amaranthus retroflexus); details: for Pigweed plant response rating (0 to 100 scale): 62 g ai/ha, 0 is no effect
# In short: as §1
# [7] = tested on: woolly cupgrass (Eriochloa villosa); details: for Cupgrass, Woolly plant response rating (0 to 100 scale): 62 g ai/ha, 0 is no effect
# In short: as §1
# [8] = postemergence, 100 is complete control, 13 to 15 days
# [9] = Postemergence, 31 g ai/ha, 0 to 100 scale (0 no effect, 100 complete control)
# [10] = Postemergence, 125 g ai/ha, scale 0 to 100 (0 no effect, 100 complete control)
# [11] = Postemergence, 250 g ai/ha, scale 0 to 100 (0 no effect, 100 complete control), 13 to 15 days
# [12] = 31 g ai/ha, postemergence, scale 0 to 100, 0 is no effect, 100 is complete control
# [13] = Postemergence, 250 g ai/ha, scale 0 to 100 (0 no effect, 100 complete control)
# [14] = Postemergence, 125 g ai/ha, visual rating after 13 to 15 days, scale 0 (no effect) to 100 (complete control)
structure (smiles),measurement,setting,value
O=C1CCCC(O)=C1C(=O)c1cnc(-c2ccccc2)n(C2CCOCC2)c1=O [Compound 129],"Ryegrass, Italian plant response rating (0 to 100 scale)",[1]; [8],0
same,"Plant response rating, Ryegrass, Italian",[1]; [9],0
same,"Plant response rating, Ryegrass, Italian",[1]; [10],0
same,"Plant response rating, Ryegrass, Italian",[1]; [11],0
same,Surinam Grass plant response rating (0 to 100 scale),[2]; [8],85
same,"Plant response rating, Surinam Grass",[2]; [9],80
same,"Plant response rating, Surinam Grass",[2]; [10],85
same,"Plant response rating, Surinam Grass",[2]; [11],85
same,"Crabgrass, Large plant response rating (0 to 100 scale)",[3]; [8],80
same,"Plant response rating, Crabgrass, Large",[3]; [9],80
same,"Plant response rating, Crabgrass, Large",[3]; [10],85
same,"Plant response rating, Crabgrass, Large",[3]; [11],85
same,Corn plant response rating (0 to 100 scale),corn (Zea mays); [8],35
same,"Plant response rating, Corn",corn (Zea mays); [9],20
same,"Plant response rating, Corn",corn (Zea mays); [10],60
same,"Plant response rating, Corn",corn (Zea mays); [11],60
same,Lambsquarters plant response rating (0 to 100 scale),[4]; [8],95
same,"Plant response rating, Lambsquarters",[4]; [9],90
same,"Plant response rating, Lambsquarters",[4]; [10],95
same,"Plant response rating, Lambsquarters",[4]; [11],98
same,Goosegrass plant response rating (0 to 100 scale),[5]; [8],85
same,"Plant response rating, Goosegrass",[5]; [9],85
same,"Plant response rating, Goosegrass",[5]; [10],90
same,"Plant response rating, Goosegrass",[5]; [11],95
same,Pigweed plant response rating (0 to 100 scale),[6]; [8],95
same,"Plant response rating, Pigweed",[6]; [9],85
same,"Plant response rating, Pigweed",[6]; [10],98
same,"Plant response rating, Pigweed",[6]; [11],98
same,"Cupgrass, Woolly plant response rating (0 to 100 scale)",[7]; [8],85
same,"Plant response rating, Cupgrass, Woolly",[7]; [9],80
same,"Plant response rating, Cupgrass, Woolly",[7]; [10],85
same,"Plant response rating, Cupgrass, Woolly",[7]; [11],85
O=C1CCCC(O)=C1C(=O)c1cnc(-c2ccccc2)n(C2CC2)c1=O [Compound 90],"Plant response rating, Ryegrass, Italian",[1]; [12],0
same,"Ryegrass, Italian plant response rating (0 to 100 scale)",[1]; [8],0
same,"Plant response rating, Ryegrass, Italian",[1]; [13],0
same,"Plant response rating, Surinam Grass",[2]; [12],65
same,Surinam Grass plant response rating (0 to 100 scale),[2]; [8],65
same,"Plant response rating, Surinam Grass",[2]; [13],75
same,"Plant response rating, Crabgrass, Large",[3]; [12],65
same,"Crabgrass, Large plant response rating (0 to 100 scale)",[3]; [8],75
same,"Plant response rating, Crabgrass, Large",[3]; [14],75
same,"Plant response rating, Crabgrass, Large",[3]; [13],80
same,"Plant response rating, Corn",corn (Zea mays); [12],15
same,Corn plant response rating (0 to 100 scale),corn (Zea mays); [8],25
same,"Plant response rating, Corn",corn (Zea mays); [14],45
same,"Plant response rating, Corn",corn (Zea mays); [13],75
same,"Plant response rating, Lambsquarters",[4]; [12],85
same,Lambsquarters plant response rating (0 to 100 scale),[4]; [8],95
same,"Plant response rating, Lambsquarters",[4]; [13],100
same,"Plant response rating, Goosegrass",[5]; [12],60
same,Goosegrass plant response rating (0 to 100 scale),[5]; [8],60
same,"Plant response rating, Goosegrass",[5]; [13],75
same,"Plant response rating, Pigweed",[6]; [12],85
same,Pigweed plant response rating (0 to 100 scale),[6]; [8],98
same,"Plant response rating, Pigweed",[6]; [13],100
same,"Plant response rating, Cupgrass, Woolly",[7]; [12],45
same,"Cupgrass, Woolly plant response rating (0 to 100 scale)",[7]; [8],45
same,"Plant response rating, Cupgrass, Woolly",[7]; [14],50
same,"Plant response rating, Cupgrass, Woolly",[7]; [13],55

# Reference: patent US8952024B2, “Herbicidal pyrimidone derivatives” (E I du Pont de Nemours and Company, priority 2009, dated 2015)
